Starred links: 1 amine or outer side, 2 acyl side, 3 side chain; linkers in the order of their positions; H or OH if unused. Non-standard residues stand in square brackets, D forms with d. Residues, ends and D or L forms follow the SMILES beside them. Groups on a side chain read outwards from the residue. *: point of attachment. γGlu = O=C(O)[C@H](CCC(=O)[*:2])N[*:1]; Palmitoyl = CCCCCCCCCCCCCCCC(=O)*
Biological target: T1, human glucagon-like peptide 1 receptor (GLP-1R) (Homo sapiens, UniProt P43220)
T1 construct: expressed in transfected cells
Assay: GLP-1 receptor efficacy assay (cAMP AlphaScreen, CHO cells)
Assay type: cell-based
Conditions: EC50 [GLP-1R] / EC50 [Glucagon-R], human receptors in CHO-K1
Description: The mammalian expression vectors encoding the Glucagon-R or the GLP-1-R were transfected into Chinese hamster ovary (CHO) cells by the Attractene method. Stably expressing clones were obtained by Zeocin selection (250 μg/mL) upon limited dilution of cells resistant to the selection pressure. […] One Glucagon-R expressing clone and one GLP-1-R expressing clone were chosen for compound profiling.
CHO cells expressing the human Glucagon-R, or human GLP-1-R were seeded 24 hours prior to the assay at 30,000 cells per well in 96-well microtiter plates in culture in 100 μl growth medium. On the day of analysis, growth medium was removed and the cells were washed once with 200 μl of assay buffer (Krebs-Ringer-buffer—KRBH). The buffer was removed and the cells were incubated for 15 min at room temperature in 10 μl KRBH (KRBH+10 mM HEPES, 5 mM NaHCO3, 0.1% (V/V) BSA) with 0.1 mM IBMX in deionized water containing increasing concentrations of test peptides. The reaction was stopped by the addition of lysis buffer (0.1% w/v BSA, 5 mM HEPES, 0.3% v/v Tween-20). After cell lysis for 10 min at room temperature, lysates were transferred to 384-well plates and 10 μl of acceptor/donorbead mixture as contained in the AlphaScreen™ cAMP Functional Assay Kit was added. After one hour of incubation at room temperature in the dark, the cAMP content was determined applying the AlphaScreen™ cAMP Functional Assay Kit from Perkin-Elmer according to manufacturer instructions. […] The GLP-1/glucagon ratio is calculated as defined earlier.

T1 sequence (P43220 24-463): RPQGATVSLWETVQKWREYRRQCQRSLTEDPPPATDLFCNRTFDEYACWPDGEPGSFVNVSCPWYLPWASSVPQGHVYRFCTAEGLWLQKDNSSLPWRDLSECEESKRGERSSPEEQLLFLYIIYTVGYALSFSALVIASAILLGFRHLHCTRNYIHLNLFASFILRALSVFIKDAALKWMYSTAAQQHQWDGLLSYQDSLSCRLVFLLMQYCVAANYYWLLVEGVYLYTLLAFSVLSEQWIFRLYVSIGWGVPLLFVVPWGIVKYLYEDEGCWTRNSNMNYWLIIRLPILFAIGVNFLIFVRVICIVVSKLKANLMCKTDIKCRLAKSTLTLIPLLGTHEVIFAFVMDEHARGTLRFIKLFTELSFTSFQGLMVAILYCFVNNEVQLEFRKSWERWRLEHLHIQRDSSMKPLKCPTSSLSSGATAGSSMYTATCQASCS

SMILES: CCCCCCCCCCCCCCCC(=O)N[C@@H](CCC(=O)NCCCC[C@H](NC(=O)[C@H](CO)NC(=O)[C@H](CC(=O)O)NC(=O)[C@H](CC(C)C)NC(=O)[C@H](Cc1ccc(O)cc1)NC(=O)[C@H](CCCCN)NC(=O)[C@H](CO)NC(=O)[C@H](Cc1ccc(O)cc1)NC(=O)[C@H](CC(=O)O)NC(=O)[C@H](CO)NC(=O)[C@@H](NC(=O)[C@H](Cc1ccccc1)NC(=O)[C@@H](NC(=O)CNC(=O)[C@H](CCC(N)=O)NC(=O)[C@H](C)NC(=O)[C@@H](N)Cc1c[nH]cn1)[C@@H](C)O)[C@@H](C)O)C(=O)N[C@@H](C)C(=O)N[C@@H](C)C(=O)N[C@@H](Cc1c[nH]cn1)C(=O)N[C@@H](CC(=O)O)C(=O)N[C@@H](Cc1ccccc1)C(=O)N[C@H](C(=O)N[C@@H](CCC(=O)O)C(=O)N[C@@H](Cc1c[nH]c2ccccc12)C(=O)N[C@@H](CC(C)C)C(=O)N[C@@H](CC(C)C)C(=O)N[C@@H](CO)C(=O)N[C@@H](C)C(N)=O)C(C)C)C(=O)O [Compound 1]
- Ratio GLP-1/Glucagon: 2.26

SMILES: CCCCCCCCCCCCCCCC(=O)N[C@@H](CCC(=O)NCCCC[C@H](NC(=O)[C@H](CO)NC(=O)[C@H](CC(=O)O)NC(=O)[C@H](CC(C)C)NC(=O)[C@H](Cc1ccc(O)cc1)NC(=O)[C@H](CCCCN)NC(=O)[C@H](CO)NC(=O)[C@H](Cc1ccc(O)cc1)NC(=O)[C@H](CC(=O)O)NC(=O)[C@H](CO)NC(=O)[C@@H](NC(=O)[C@H](Cc1ccccc1)NC(=O)[C@@H](NC(=O)CNC(=O)[C@H](CCC(N)=O)NC(=O)[C@H](CO)N(C)C(=O)[C@@H](N)Cc1c[nH]cn1)[C@@H](C)O)[C@@H](C)O)C(=O)N[C@@H](C)C(=O)N[C@@H](C)C(=O)N[C@@H](Cc1c[nH]cn1)C(=O)N[C@@H](CC(=O)O)C(=O)N[C@@H](Cc1ccccc1)C(=O)N[C@H](C(=O)N[C@@H](CCC(=O)O)C(=O)N[C@@H](Cc1c[nH]c2ccccc12)C(=O)N[C@@H](CC(C)C)C(=O)N[C@@H](CC(C)C)C(=O)N[C@@H](CO)C(=O)N[C@@H](C)C(N)=O)C(C)C)C(=O)O [Compound 2]
- Ratio GLP-1/Glucagon: 3.83

SMILES: CCCCCCCCCCCCCCCC(=O)N[C@@H](CCC(=O)NCCCC[C@H](NC(=O)[C@H](CO)NC(=O)[C@H](CC(=O)O)NC(=O)[C@H](CC(C)C)NC(=O)[C@H](Cc1ccc(O)cc1)NC(=O)[C@H](CCCCN)NC(=O)[C@H](CO)NC(=O)[C@H](Cc1ccc(O)cc1)NC(=O)[C@H](CC(=O)O)NC(=O)[C@H](CO)NC(=O)[C@@H](NC(=O)[C@H](Cc1ccccc1)NC(=O)[C@@H](NC(=O)CNC(=O)[C@H](Cc1c[nH]cn1)NC(=O)[C@H](C)NC(=O)[C@@H](N)Cc1c[nH]cn1)[C@@H](C)O)[C@@H](C)O)C(=O)N[C@@H](C)C(=O)N[C@@H](C)C(=O)N[C@@H](Cc1c[nH]cn1)C(=O)N[C@@H](CC(=O)O)C(=O)N[C@@H](Cc1ccccc1)C(=O)N[C@H](C(=O)N[C@@H](CCC(=O)O)C(=O)N[C@@H](Cc1c[nH]c2ccccc12)C(=O)N[C@@H](CC(C)C)C(=O)N[C@@H](CC(C)C)C(=O)N[C@@H](CO)C(=O)N[C@@H](C)C(N)=O)C(C)C)C(=O)O [Compound 6] (H-HAHGTFTSDYSKYLDSK([γGlu-Palmitoyl])AAHDFVEWLLSA-NH2)
- Ratio GLP-1/Glucagon: 0.75

SMILES: CCCCCCCCCCCCCCCC(=O)N[C@@H](CCC(=O)NCCCC[C@H](NC(=O)[C@H](CO)NC(=O)[C@H](CC(=O)O)NC(=O)[C@H](CC(C)C)NC(=O)[C@H](Cc1ccc(O)cc1)NC(=O)[C@H](CCCCN)NC(=O)[C@H](CO)NC(=O)[C@H](Cc1ccc(O)cc1)NC(=O)[C@H](CC(=O)O)NC(=O)[C@H](CO)NC(=O)[C@@H](NC(=O)[C@H](Cc1ccccc1)NC(=O)[C@@H](NC(=O)CNC(=O)[C@H](Cc1c[nH]cn1)NC(=O)[C@@H](C)NC(=O)[C@@H](N)Cc1c[nH]cn1)[C@@H](C)O)[C@@H](C)O)C(=O)N[C@@H](C)C(=O)N[C@@H](C)C(=O)N[C@@H](Cc1c[nH]cn1)C(=O)N[C@@H](CC(=O)O)C(=O)N[C@@H](Cc1ccccc1)C(=O)N[C@H](C(=O)N[C@@H](CCC(=O)O)C(=O)N[C@@H](Cc1c[nH]c2ccccc12)C(=O)N[C@@H](CC(C)C)C(=O)N[C@@H](CC(C)C)C(=O)N[C@@H](CO)C(=O)N[C@@H](C)C(N)=O)C(C)C)C(=O)O [Compound 7] (H-H[dA]HGTFTSDYSKYLDSK([γGlu-Palmitoyl])AAHDFVEWLLSA-NH2)
- Ratio GLP-1/Glucagon: 0.58
